In PubChem BioAssay (NCI):
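A five-concentration, 48-hour dose response in 96-well plates underlies each endpoint, interpolated linearly between surrounding concentrations. The concentration for 50% growth inhibition is given as GI50. Definition used: TGI = concentration required for complete inhibition of growth.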

How the values were obtained:
Assay in all cases: inhibition of tumour cell growth, NCI panel, 48 h
[1] = system: K-562 leukemia
[2] = system: EKVX NSCLC
[3] = system: 786-0 renal
[4] = system: MOLT-4 leukemia
[5] = system: MDA-MB-231 breast
[6] = system: T-47D breast
[7] = system: HCT-116 colon
[8] = system: UACC-257 melanoma
[9] = system: SK-MEL-5 melanoma
[10] = system: SNB-19 CNS

Row | Compound | TGI [1] | TGI [2] | TGI [3] | TGI [4] | TGI [5] | TGI [6] | TGI [7] | TGI [8] | TGI [9] | TGI [10] | GI50 [5]
1 | CC(C)C(CC(=O)OCC(CO)OC(=O)CC(C(C)C)C(C)C)C(C)C (centres undefined) | 33 µM | 27 µM | 27.9 µM | 31.5 µM | 33.9 µM | 31.7 µM | 33.4 µM | 31.2 µM | 24.7 µM | 28.4 µM | –
2 | N#CC1(O)CCCCCCCCCCC1 | > 100 µM | > 100 µM | > 100 µM | > 100 µM | > 100 µM | > 100 µM | > 100 µM | > 100 µM | > 100 µM | > 100 µM | –
3 | CN(C)CCCNC(=O)c1cc(NC(=O)c2cc(NC(=O)CCCn3c4ccccc4c4ccccc43)cn2C)cn1C | 11.6 µM | 46.2 µM | 28.7 µM | > 23.1 µM | 20.9 µM | 28 µM | 13.8 µM | 41.2 µM | 19.6 µM | 28.3 µM | 4.45 µM
4 | O=c1nc2c(c(-c3ccc(Br)cc3)[nH]1)COC/C2=C\c1ccc(Br)cc1 | > 50 µM | > 50 µM | > 50 µM | > 50 µM | > 50 µM | > 50 µM | > 50 µM | > 50 µM | > 50 µM | > 50 µM | –
5 | CC1CCC2(NC1)OC1CC3C4CC=C5CC(OC6OC(CO)C(OC7OC(C)C(O)C(O)C7O)C(O)C6OC6OC(C)C(O)C(O)C6O)CCC5(C)C4CCC3(C)C1C2C (centres undefined) | 28.7 µM | 6.4 µM | 3.72 µM | 26.7 µM | 8.93 µM | 29 µM | 4.91 µM | 6.67 µM | 33.9 µM | 28.3 µM | –
6 | CN(C)CC1CCC/C(=C\c2ccc(OC(=O)c3ccc(Cl)cc3)cc2)C1=O (centres undefined) | 3.8 µM | 6.16 µM | 2.3 µM | 3.19 µM | 5.73 µM | 2.21 µM | 2.23 µM | 16.7 µM | 12.1 µM | 13.7 µM | –
7 | O=C(O)c1cccc2cccc(-c3cccc4cccc(C(=O)O)c34)c12 | > 100 µM | > 100 µM | > 100 µM | – | > 100 µM | > 100 µM | > 100 µM | > 100 µM | > 100 µM | > 100 µM | –
8 | CCC(CO)Nc1nc(NCc2ccccc2)c2ncn(C(C)C)c2n1 (centres undefined) | > 100 µM | 49.5 µM | > 80.7 µM | – | > 94.5 µM | > 100 µM | > 90.2 µM | > 94.7 µM | > 51.8 µM | > 100 µM | –
9 | CO[C@H]1SC[C@H](OC(C)=O)[C@H](OC(C)=O)[C@H]1OC(C)=O | > 100 µM | > 100 µM | > 100 µM | > 100 µM | > 100 µM | > 100 µM | > 100 µM | > 100 µM | > 100 µM | > 100 µM | –
10 | C=C1OC(c2ccccc2NC)=NC12CCCCC2 | > 100 µM | > 100 µM | > 100 µM | > 100 µM | > 100 µM | > 100 µM | > 100 µM | > 100 µM | > 100 µM | > 100 µM | –
